# Laboratory results published in patent US11111238B2, “Coumarin derivatives, processes for their preparation and uses thereof for the treatment of cancer” (Lead Discovery Center GmbH, priority 2017, dated 2021).
# pIC50: −log10 of the molar value.
# Target: mitochondrial RNA-polymerase (POLRMT) (Mus musculus, UniProt Q8BKF1)
# Test: Homogeneous TR-FRET assay for mitochondrial transcription activity
# Assay type: biochemical
# Conditions: homogeneous TR-FRET assay according to Example 4; activity class
# Text: The TR-FRET assay was basically conducted as described in WO2016/193,231A1, especially as described in example 1 (hereby incorporated by reference). With respect to the background of the mitochondrial transcription it is referred to Falkenberg et al. (2002) and Posse et al. (Posse et al., 2015). The method monitors the activity of mitochondrial RNA-polymerase via detection of the formation of its product, a 407 bp long RNA sequence. Detection of the product is facilitated by hybridization of two DNA-oligonucleotide probes to specific and adjacent sequences within the RNA product sequence. Upon annealing of the probes, two fluorophores that are coupled directly to an acceptor nucleotide probe (ATT0647, 5′) or introduced via a coupled streptavidin interacting with a biotinylated donor nucleotide probe on the other side (Europium cryptate, 3′) are brought into sufficient proximity to serve as a fluorescence-donor-acceptor pair as generally described in Walters and Namchuk (2003). Thus, a FRET signal at 665 nm is generated upon excitation at 340 nm.
# Briefly, the protocol described here was applied for screening and activity determination in a low-volume 384-well microtiter plate with non-binding surface. For high-throughput application in the 1536-well microtiter plate format, volumes of the reagent mixes were adjusted, maintaining the volumetric ratio. Proteins POLRMT (NM_172551.3), TFAM (NM_009360.4) and TFB2 M (NM_008249.4) were diluted from their stocks to working concentrations of 150 nM, 1.8 μM and 330 nM respectively, in a dilution buffer containing 100 mM Tris-HCl pH 8.0, 200 mM NaCl, 10% (v/v) glycerole, 2 mM glutathione (GSH), 0.5 mM EDTA and 0.1 mg/mL BSA. Protein dilutions and template DNA, comprising a pUC18 plasmid encoding the mitochondrial light strand promoter, restriction linearized proximal to the promoter 3′-end (pUC-LSP), were mixed at the twofold final assay-concentration in a reaction buffer, containing 10 mM Tris-HCl pH 7.5, 10 mM MgCl2, 40 mM NaCl, 2 mM GSH, 0.01% (w/v) Tween-20 and 0.1 mg/mL BSA.
# 5 μL of this mix were dispensed, depending on the chosen microtiter plate format, using multi-channel pipettes or a Multidrop® dispenser (Thermo Fisher Scientific, Waltham Mass.) into the wells of a microtiter plate and incubated at room temperature (RT) for 10 min. Chemical compounds under scrutiny in the assay were applied using contact-free acoustic droplet-dispensing (Echo520® Labcyte Inc., Sunnyvale Calif.) from 10 mM compound stocks in 100% DMSO, to a final concentration of 10 μM or in serial dilution series of the required concentration range. Equal amounts of DMSO without any compound were added to positive control samples, followed by an incubation step at RT for 10 min.
# The enzymatic reaction was started by the addition of 5 μL of a mix of […] in reaction buffer to a final concentration of 500 μM each. No nucleotide mix was added to negative control samples. The content of the wells was mixed using a VarioTeleshaker™ (Thermo Fisher Scientific, Waltham Mass.) at 1,500 rpm for 45 sec after which the microtiter plate was centrifuged at 500×g for 1 min. The samples were incubated for 2 h at RT with humidity control to avoid evaporation. The detection reagents were prepared in a buffer that was composed, such that the enzymatic reaction was terminated due to chelating of Mg-ions and increased ionic strength, containing 50 mM Tris-HCl pH 7.5, 700 mM NaCl, 20 mM EDTA, and 0.01% (w/v) Tween-20. Importantly Eu-cryptate-coupled streptavidin had to be pre-incubated with a 100-fold molar excess of a random sequence oligonucleotide for 10 min at RT in the dark to block unspecific binding of single stranded RNA to the protein. Subsequently, the blocked streptavidin(—Eu) was mixed with the DNA-probes on ice and kept away from light until use. […]
# Chain of mitochondrial RNA-polymerase (POLRMT) (Q8BKF1 42-1207): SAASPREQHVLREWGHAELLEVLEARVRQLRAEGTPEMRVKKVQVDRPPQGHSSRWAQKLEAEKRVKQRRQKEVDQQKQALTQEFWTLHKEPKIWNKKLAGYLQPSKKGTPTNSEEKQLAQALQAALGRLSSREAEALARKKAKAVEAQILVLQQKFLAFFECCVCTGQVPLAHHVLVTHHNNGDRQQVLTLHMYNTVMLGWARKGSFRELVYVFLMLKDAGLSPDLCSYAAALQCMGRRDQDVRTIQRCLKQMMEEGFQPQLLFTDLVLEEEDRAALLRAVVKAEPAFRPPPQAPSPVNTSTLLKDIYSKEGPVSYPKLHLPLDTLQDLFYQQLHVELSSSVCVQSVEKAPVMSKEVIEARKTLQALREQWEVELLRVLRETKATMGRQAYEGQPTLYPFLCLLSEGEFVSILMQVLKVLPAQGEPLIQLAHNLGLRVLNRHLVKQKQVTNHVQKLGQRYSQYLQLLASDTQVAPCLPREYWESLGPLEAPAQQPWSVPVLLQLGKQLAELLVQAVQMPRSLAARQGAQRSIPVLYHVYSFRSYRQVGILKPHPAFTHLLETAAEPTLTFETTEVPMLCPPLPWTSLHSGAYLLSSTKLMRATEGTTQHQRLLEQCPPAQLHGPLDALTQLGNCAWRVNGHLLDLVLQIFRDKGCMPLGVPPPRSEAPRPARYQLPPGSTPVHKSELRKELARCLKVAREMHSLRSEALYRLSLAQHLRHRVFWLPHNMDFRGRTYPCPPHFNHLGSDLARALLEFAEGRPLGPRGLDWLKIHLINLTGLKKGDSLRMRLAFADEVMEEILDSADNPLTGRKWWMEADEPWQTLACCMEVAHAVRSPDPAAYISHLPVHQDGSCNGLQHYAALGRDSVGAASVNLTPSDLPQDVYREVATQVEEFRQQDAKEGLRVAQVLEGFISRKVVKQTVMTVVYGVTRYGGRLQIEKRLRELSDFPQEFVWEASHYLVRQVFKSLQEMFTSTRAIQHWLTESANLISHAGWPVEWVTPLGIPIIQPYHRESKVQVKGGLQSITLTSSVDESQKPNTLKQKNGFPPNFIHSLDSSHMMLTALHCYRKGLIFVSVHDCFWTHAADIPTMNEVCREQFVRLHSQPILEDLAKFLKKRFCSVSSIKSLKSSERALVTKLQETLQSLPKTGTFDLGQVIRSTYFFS
row,pIC50,Structure (SMILES)
1,> 7.70,"CC(Oc1ccc2c(-c3ccccc3Cl)cc(=O)oc2c1)C(=O)N1CCCC(S(=O)(=O)O)C1 (stereo not shown) [Compound 11, 1-[2-[4-(2-chlorophenyl)-2-oxo-chromen-7-yl]oxypropanoyl]piperidine-3-sulfonic acid]"
2,6.00 to 7.00,"C[C@@H](Oc1ccc2c(-c3c(Cl)cccc3Cl)cc(=O)oc2c1)C(=O)N1CCC[C@H](C(=O)O)C1 [Compound 163, (3S)-1-[(2R)-2-[4-(2,6-dichlorophenyl)-2-oxo-chromen-7-yl]oxypropanoyl]piperidine-3-carboxylic acid]"
3,> 7.70,"Cc1ccccc1-c1cc(=O)oc2cc(OC(C)C(=O)N3CCC[C@@H](C(=O)O)C3)ccc12 (stereo partly drawn) [Compound 53, (3R)-1-[2-[4-(o-tolyl)-2-oxo-chromen-7-yl]oxypropanoyl]piperidine-3-carboxylic acid]"
4,> 7.70,"C[C@@H](Oc1ccc2c(-c3ccc(F)cc3Cl)cc(=O)oc2c1)C(=O)Nc1ccc(C(=O)O)nc1 [Compound 154, 5-[[(2R)-2-[4-(2-chloro-4-fluoro-phenyl)-2-oxo-chromen-7-yl]oxypropanoyl]amino]pyridine-2-carboxylic acid]"
5,7.00 to 7.70,"CC(Oc1ccc2c(-c3ccccc3Cl)cc(=O)oc2c1)C(=O)N1CCC(S(N)(=O)=O)C1 (stereo not shown) [Compound 77, 1-[2-[4-(2-chlorophenyl)-2-oxo-chromen-7-yl]oxypropanoyl]pyrrolidine-3-sulfonamide]"
6,> 7.70,"COC(=O)C1CCN(C(=O)[C@@H](C)Oc2ccc3c(-c4ccc(F)cc4Cl)cc(=O)oc3c2)CC1 [Compound 129, methyl 1-[(2R)-2-[4-(2-chloro-4-fluoro-phenyl)-2-oxo-chromen-7-yl]oxypropanoyl]piperidine-4-carboxylate]"
7,> 7.70,"C[C@@H](Oc1ccc2c(-c3ccc(F)cc3Cl)cc(=O)oc2c1)C(=O)Nc1cccc(C(=O)O)n1 [Compound 151, 6-[[(2R)-2-[4-(2-chloro-4-fluoro-phenyl)-2-oxo-chromen-7-yl]oxypropanoyl]amino]pyridine-2-carboxylic acid]"
8,> 7.70,"Cc1ccccc1-c1cc(=O)oc2cc(OC(C)C(=O)N3CCCC(C)(C(=O)O)C3)ccc12 (stereo not shown) [Compound 43, 3-methyl-1-[2-[4-(o-tolyl)-2-oxo-chromen-7-yl]oxypropanoyl]piperidine-3-carboxylic acid]"
9,7.00 to 7.70,"COC(=O)c1ccc(NC(=O)[C@@H](C)Oc2ccc3c(-c4ccc(F)cc4Cl)cc(=O)oc3c2)cn1 [Compound 153, methyl 5-[[(2R)-2-[4-(2-chloro-4-fluoro-phenyl)-2-oxo-chromen-7-yl]oxypropanoyl]amino]pyridine-2-carboxylate]"
10,> 7.70,"CC(C)NC(=O)C(C)Oc1ccc2c(-c3cccc(F)c3Cl)cc(=O)oc2c1 (stereo not shown) [Compound 49, 2-[4-(2-chloro-3-fluoro-phenyl)-2-oxo-chromen-7-yl]oxy-N-isopropyl-propanamide]"
11,> 7.70,"Cc1ccccc1-c1cc(=O)oc2cc(OC(C)C(=O)N3CC[C@H](C(=O)O)C3)ccc12 (stereo partly drawn) [Compound 22, (3S)-1-[2-[4-(o-tolyl)-2-oxo-chromen-7-yl]oxypropanoyl]pyrrolidine-3-carboxylic acid]"
12,> 7.70,"CNC(=O)C(C)Oc1ccc2c(-c3ccccc3Cl)cc(=O)oc2c1 (stereo not shown) [Compound 51, 2-[4-(2-chlorophenyl)-2-oxo-chromen-7-yl]oxy-N-methyl-propanamide]"
13,> 7.70,"CCc1ccccc1-c1cc(=O)oc2cc(O[C@H](C)C(=O)N3CCC[C@H](C(=O)O)C3)ccc12 [Compound 134, (3S)-1-[(2R)-2-[4-(2-ethylphenyl)-2-oxo-chromen-7-yl]oxypropanoyl]piperidine-3-carboxylic acid]"
14,> 7.70,"Cc1ccccc1-c1cc(=O)oc2cc(OC(C)C(=O)Nc3ccccn3)ccc12 (stereo not shown) [Compound 4, 2-[4-(o-tolyl)-2-oxo-chromen-7-yl]oxy-N-(2-pyridyl)propanamide]"
15,7.00 to 7.70,"Cc1ccccc1-c1cc(=O)oc2cc(OC(C)C(=O)N3CCCC(S(C)(=N)=O)C3)ccc12 (stereo not shown) [Compound 73, 7-[1-methyl-2-[3-(methylsulfonimidoyl)-1-piperidyl]-2-oxo-ethoxy]-4-(o-tolyl)chromen-2-one]"
16,> 7.70,"Cc1ccccc1-c1cc(=O)oc2cc(O[C@H](C)C(=O)OC(C)C)ccc12 [Compound 55, (R)-isopropyl 2-((2-oxo-4-(o-tolyl)-2H-chromen-7-yl)oxy)propanoate]"
17,6.00 to 7.00,"CCOC(=O)C1(C)CCCN(C(=O)C(C)Oc2ccc3c(-c4ccc(F)cc4Cl)cc(=O)oc3c2)C1 (stereo not shown) [Compound 95, ethyl 1-[2-[4-(2-chloro-4-fluoro-phenyl)-2-oxo-chromen-7-yl]oxypropanoyl]-3-methyl-piperidine-3-carboxylate]"
18,> 7.70,"CCOC(=O)[C@H]1CCCN(C(=O)C(C)Oc2ccc3c(-c4ccccc4C)cc(=O)oc3c2)C1 (stereo partly drawn) [Compound 17, ethyl (3S)-1-[2-[4-(o-tolyl)-2-oxo-chromen-7-yl]oxypropanoyl]piperidine-3-carboxylate]"
19,7.00 to 7.70,"COC(=O)c1cc(NC(=O)[C@@H](C)Oc2ccc3c(-c4ccc(F)cc4Cl)cc(=O)oc3c2)ccn1 [Compound 156, methyl 4-[[(2R)-2-[4-(2-chloro-4-fluoro-phenyl)-2-oxo-chromen-7-yl]oxypropanoyl]amino]pyridine-2-carboxylate]"
20,> 7.70,"Cc1ccccc1-c1cc(=O)oc2cc(O[C@H](C)C(=O)N3CCCCC3)ccc12 [Compound 30, 7-[(1R)-1-methyl-2-oxo-2-(1-piperidyl)ethoxy]-4-(o-tolyl)chromen-2-one]"
21,> 7.70,"COC(=O)C[C@@H]1CCCN(C(=O)[C@@H](C)Oc2ccc3c(-c4ccccc4Cl)cc(=O)oc3c2)C1 [Compound 100, methyl 2-[(3S)-1-[(2R)-2-[4-(2-chlorophenyl)-2-oxo-chromen-7-yl]oxypropanoyl]-3-piperidyl]acetate]"
22,7.00 to 7.70,"CC(Oc1ccc2c(-c3cccc(F)c3Cl)cc(=O)oc2c1)C(=O)NC1CC1 (stereo not shown) [Compound 61, 2-[4-(2-chloro-3-fluoro-phenyl)-2-oxo-chromen-7-yl]oxy-N-cyclopropyl-propanamide]"
23,> 7.70,"C[C@@H](Oc1ccc2c(-c3ccccc3Cl)cc(=O)oc2c1)C(=O)N1CC[C@H](C(=O)O)C1 [Compound 29, (3S)-1-[2-[4-(2-chlorophenyl)-2-oxo-chromen-7-yl]oxypropanoyl]pyrrolidine-3-carboxylic acid]"
24,> 7.70,"CC(Oc1ccc2c(-c3ccccc3Cl)cc(=O)oc2c1)C(=O)N1CCCC1 (stereo not shown) [Compound 13, 4-(2-chlorophenyl)-7-(1-methyl-2-oxo-2-pyrrolidin-1-yl-ethoxy)chromen-2-one]"
25,7.00 to 7.70,"Cc1ccccc1-c1cc(=O)oc2cc(OC(C)C(=O)N3CCC(S(N)(=O)=O)C3)ccc12 (stereo not shown) [Compound 63, 1-[2-[4-(o-tolyl)-2-oxo-chromen-7-yl]oxypropanoyl]pyrrolidine-3-sulfonamide]"
26,6.00 to 7.00,"COCCc1ccc(NC(=O)[C@@H](C)Oc2ccc3c(-c4ccc(F)cc4Cl)cc(=O)oc3c2)cc1 [Compound 140, (2R)-2-[4-(2-chloro-4-fluoro-phenyl)-2-oxo-chromen-7-yl]oxy-N-[4-(2-methoxyethyl)phenyl]propanamide]"
27,> 7.70,"C[C@@H](Oc1ccc2c(-c3ccccc3Cl)cc(=O)oc2c1)C(=O)N1CCC[C@H](C#N)C1 [Compound 28, (3S)-1-[(2R)-2-[4-(2-chlorophenyl)-2-oxo-chromen-7-yl]oxypropanoyl]piperidine-3-carbonitrile]"
28,7.00 to 7.70,"CC(C)NC(=O)C(C)Oc1ccc2c(-c3ccc(F)cc3Cl)cc(=O)oc2c1 (stereo not shown) [Compound 65, 2-[4-(2-chloro-4-fluoro-phenyl)-2-oxo-chromen-7-yl]oxy-N-isopropyl-propanamide]"
